Test results taken from the supplement of paper PMC4862054.

Legend:
Test in all cases: drug sensitivity score (DSS), CellTiter-Glo (DSS (AUC-based score)); higher = stronger drug effect (viability inhibition or cytotoxicity); extreme values may be limits of the assay
Settings in all cases: incubation time: 72 h
CAL-51 = tested on: CAL-51
Method in brief: (§1)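 Plates with 384 wells held compound at 5 concentrations in 10-fold steps over a 10,000-fold range specific to each compound. Breast cancer cell lines were added in 20 µl suspension and incubated 72 h, then read for CellTox Green and CellTiter-Glo signals, with each plate normalised to 0.1 % DMSO and a positive kill control. The drug sensitivity score is based on the area under the fitted dose-response curve.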

HCC1143 = tested on: HCC1143
Method in brief: as §1

SK-BR-3 = tested on: SK-BR-3
Method in brief: as §1

CAL-120 = tested on: CAL-120
Method in brief: as §1

HCC1937 = tested on: HCC1937
Method in brief: as §1

BT-549 = tested on: BT-549
Method in brief: as §1

MFM-223 = tested on: MFM-223
Method in brief: as §1

CAL-148 = tested on: CAL-148
Method in brief: as §1

MCF-10A = tested on: MCF-10A
Method in brief: as §1

MDA-MB-468 = tested on: MDA-MB-468
Method in brief: as §1

BT-474 = tested on: BT-474
Method in brief: as §1

MDA-MB-231 = tested on: MDA-MB-231
Method in brief: as §1

MDA-MB-436 = tested on: MDA-MB-436
Method in brief: as §1

CAL-85-1 = tested on: CAL-85-1
Method in brief: as §1

Hs578T = tested on: Hs578T
Method in brief: as §1

HCC1599 = tested on: HCC1599
Method in brief: as §1

DU-4475 = tested on: DU-4475
Method in brief: as §1

HDQ-P1 = tested on: HDQ-P1
Method in brief: as §1

MDA-MB-453 = tested on: MDA-MB-453
Method in brief: as §1

Compound | drug sensitivity score (CAL-51) | drug sensitivity score (HCC1143) | drug sensitivity score (SK-BR-3) | drug sensitivity score (CAL-120) | drug sensitivity score (HCC1937) | drug sensitivity score (BT-549) | drug sensitivity score (MFM-223) | drug sensitivity score (CAL-148) | drug sensitivity score (MCF-10A) | drug sensitivity score (MDA-MB-468) | drug sensitivity score (BT-474) | drug sensitivity score (MDA-MB-231) | drug sensitivity score (MDA-MB-436) | drug sensitivity score (CAL-85-1) | drug sensitivity score (Hs578T) | drug sensitivity score (HCC1599) | drug sensitivity score (DU-4475) | drug sensitivity score (HDQ-P1) | drug sensitivity score (MDA-MB-453)
CN(Cc1cnc2nc(N)nc(N)c2n1)c1ccc(C(=O)N[C@@H](CCC(=O)O)C(=O)O)cc1 [Methotrexate] | 16.2 | 0 | 0 | 17.3 | 30.2 | 0 | 0 | 0 | 0 | 0 | 7.54 | 7.21 | 3.7 | 9.24 | 2.72 | 1.47 | 0 | 23.1 | 0
CO[C@@H]1[C@H](N(C)C(=O)c2ccccc2)C[C@H]2O[C@]1(C)n1c3ccccc3c3c4c(c5c6ccccc6n2c5c31)C(=O)NC4 [Midostaurin] | 15.9 | 8.75 | 7.66 | 9.74 | 7.38 | 13.8 | 3.44 | 0 | 17 | 14.6 | 10.5 | 10.8 | 3.96 | 2.25 | 15.7 | 0 | 9.68 | 6.88 | 0
CO[C@@]12[C@H](COC(N)=O)C3=C(C(=O)C(C)=C(N)C3=O)N1C[C@@H]1N[C@@H]12 [Mitomycin C] | 10.5 | 0 | 1.42 | 0.335 | 0 | 8.27 | 0 | 0 | 0 | 4.87 | 0 | 0 | 3.39 | 2.91 | 0 | 0 | 0 | 0.633 | 0
CCNC(=O)c1noc(-c2cc(C(C)C)c(O)cc2O)c1-c1ccc(CN2CCOCC2)cc1 [NVP-AUY922] | 15.7 | 11.2 | 16.7 | 9.4 | 13.8 | 14.1 | 14.9 | 12.5 | 16.2 | 21.8 | 13 | 13.3 | 14.8 | 14.1 | 11 | 3.99 | 17.8 | 17.4 | 12.4
CC1(C)CCC(c2ccc(Cl)cc2)=C(CN2CCN(c3ccc(C(=O)NS(=O)(=O)c4ccc(N[C@H](CCN5CCOCC5)CSc5ccccc5)c(S(=O)(=O)C(F)(F)F)c4)cc3)CC2)C1 [Navitoclax] | 2.18 | 0 | 0 | 7.04 | 3.57 | 0.252 | 2.94 | 2 | 0 | 4.81 | 9.19 | 11.1 | 0 | 0.831 | 0 | 0 | 1.89 | 4.94 | 3.71
Cc1cn(-c2cc(NC(=O)c3ccc(C)c(Nc4nccc(-c5cccnc5)n4)c3)cc(C(F)(F)F)c2)cn1 [Nilotinib] | 6.22 | 0 | 0 | 0 | 0 | 1.04 | 0 | 0 | 0 | 0 | 0 | 0 | 0 | 0 | 0 | 0 | 0 | 0 | 0
CC[C@H](CO)Nc1nc(NCc2ccccc2)c2ncn(C(C)C)c2n1 [Seliciclib] | 2.74 | 0 | 0 | 0 | 0 | 1.15 | 0 | 0 | 0 | 0 | 0.844 | 0 | 0 | 0 | 0 | 0 | 0 | 0 | 0
C=CCN(/C=C1/C(=O)O[C@H](COC)[C@@]2(C)C1=C(O)C(=O)C1=C2[C@H](OC(C)=O)C[C@]2(C)C(=O)CC[C@@H]12)CC=C [Sonolisib] | 4.2 | 0 | 0 | 0 | 0 | 0.766 | 0 | 0 | 0 | 0 | 0 | 0 | 0 | 0 | 0 | 0 | 0 | 0 | 0
O=[N+]([O-])c1ccc2c(c1)S(=O)(=O)C=C2 [Stattic] | 18.1 | 6.56 | 8.62 | 7.49 | 15.3 | 20.4 | 14.8 | 11.9 | 5.13 | 24.4 | 9.26 | 14.4 | 9.28 | 17.8 | 14 | 7.71 | 5.46 | 6.75 | 12.6
CC(C)n1cnc2c(NCCc3ccc(O)cc3)nc(-c3csc4ccccc34)nc21 [StemRegenin 1] | 0 | 0 | 0 | 0 | 1.53 | 3.44 | 1.58 | 0 | 0 | 0.986 | 0 | 0 | 0.344 | 0 | 0 | 0 | 0 | 1.2 | 0.255
O=C(CCCCCCC(=O)Nc1ccccc1)NO [Vorinostat] | 8.31 | 4.04 | 5.14 | 3.27 | 3.4 | 1.14 | 3.32 | 5.5 | 1.17 | 8.49 | 4.8 | 5.59 | 0 | 4.06 | 2.53 | 4.43 | 5.43 | 2.32 | 10.6
